Results taken from a compilation of properties of binary mixtures (doi:10.1016/j.molliq.2022.121176).

Experiment: xn = mol fraction of the nth substance listed
Conditions: 298 K, 101.3 kPa

## II + CCCCCCCCCCCC[n+]1ccn(C)c1.[I-]
x2 = 0.25
  electrical conductivity: 1.39 S/m

## II + CCCCCC[n+]1ccn(C)c1.[I-]
x2 = 0.2
  electrical conductivity: 3.89 S/m
x2 = 0.25
  electrical conductivity: 2.93 S/m
x2 = 0.333
  electrical conductivity: 1.96 S/m
x2 = 0.5
  electrical conductivity: 0.429 S/m

## II + CCCC[n+]1ccn(C)c1.[I-]
x2 = 0.2
  electrical conductivity: 5.13 S/m
x2 = 0.25
  electrical conductivity: 4.31 S/m
x2 = 0.5
  electrical conductivity: 0.735 S/m

## CCCCCC[n+]1ccn(C)c1.[I-] + II
x1 = 1
  electrical conductivity: 0.0186 S/m

## CCCC[n+]1ccn(C)c1.[I-] + II
x1 = 1
  electrical conductivity: 0.035 S/m

## CC[n+]1ccn(C)c1.[I-] + II
x1 = 0.2
  electrical conductivity: 7.17 S/m
x1 = 0.25
  electrical conductivity: 6.5 S/m
  viscosity: 18.8 mPa·s
x1 = 0.333
  electrical conductivity: 5.08 S/m

## C=CCn1cc[n+](C)c1.[I-] + II
x1 = 0.2
  electrical conductivity: 4.07 S/m
x1 = 0.333
  electrical conductivity: 3.82 S/m
